Measured values from ChEMBL document CHEMBL4414672, “Synthesis of certain benzothieno[3,2-d]pyrimidine derivatives as a selective SIRT2 inhibitors” (Eur J Med Chem, 2020).

How the values were obtained:
Format in all cases: functional
HL-60(TB) = assay: Growth inhibition of human HL-60(TB) cells at 10^-5 M incubated for 48 hrs by sulforhodamine B assay; details: HL-60, 48 h, read-out: GI
K562 = assay: Growth inhibition of human K562 cells at 10^-5 M incubated for 48 hrs by sulforhodamine B assay; details: K562, 48 h, read-out: GI
MOLT-4 = assay: Growth inhibition of human MOLT4 cells at 10^-5 M incubated for 48 hrs by sulforhodamine B assay; details: MOLT-4, 48 h, read-out: GI
SR = assay: Growth inhibition of human SR cells at 10^-5 M incubated for 48 hrs by sulforhodamine B assay; details: read-out: GI
HOP-62 = assay: Growth inhibition of human HOP62 cells at 10^-5 M incubated for 48 hrs by sulforhodamine B assay; details: HOP-62, 48 h, read-out: GI
NCI-H226 = assay: Growth inhibition of human NCI-H226 cells at 10^-5 M incubated for 48 hrs by sulforhodamine B assay; details: NCI-H226, 48 h, read-out: GI
NCI-H23 = assay: Growth inhibition of human NCI-H23 cells at 10^-5 M incubated for 48 hrs by sulforhodamine B assay; details: NCI-H23, 48 h, read-out: GI
NCI-H322M = assay: Growth inhibition of human NCI-H322M cells at 10^-5 M incubated for 48 hrs by sulforhodamine B assay; details: read-out: GI
NCI-H460 = assay: Growth inhibition of human NCI-H460 cells at 10^-5 M incubated for 48 hrs by sulforhodamine B assay; details: NCI-H460, 48 h, read-out: GI
COLO 205 = assay: Growth inhibition of human COLO205 cells at 10^-5 M incubated for 48 hrs by sulforhodamine B assay; details: COLO 205, 48 h, read-out: GI
HCT-15 = assay: Growth inhibition of human HCT15 cells at 10^-5 M incubated for 48 hrs by sulforhodamine B assay; details: HCT-15, 48 h, read-out: GI
SW-620 = assay: Growth inhibition of human SW620 cells at 10^-5 M incubated for 48 hrs by sulforhodamine B assay; details: SW-620, 48 h, read-out: GI
SF-268 = assay: Growth inhibition of human SF268 cells at 10^-5 M incubated for 48 hrs by sulforhodamine B assay; details: SF-268, 48 h, read-out: GI
SF-295 = assay: Growth inhibition of human SF295 cells at 10^-5 M incubated for 48 hrs by sulforhodamine B assay; details: SF-295, 48 h, read-out: GI
SF-539 = assay: Growth inhibition of human SF539 cells at 10^-5 M incubated for 48 hrs by sulforhodamine B assay; details: SF-539, 48 h, read-out: GI
SNB-19 = assay: Growth inhibition of human SNB19 cells at 10^-5 M incubated for 48 hrs by sulforhodamine B assay; details: SNB-19, 48 h, read-out: GI
Malme-3M = assay: Growth inhibition of human MALME-3M cells at 10^-5 M incubated for 48 hrs by sulforhodamine B assay; details: read-out: GI
M14 = assay: Growth inhibition of human M14 cells at 10^-5 M incubated for 48 hrs by sulforhodamine B assay; details: M14, 48 h, read-out: GI
SK-MEL-2 = assay: Growth inhibition of human SK-MEL-2 cells at 10^-5 M incubated for 48 hrs by sulforhodamine B assay; details: SK-MEL-2, 48 h, read-out: GI
SK-MEL-28 = assay: Growth inhibition of human SK-MEL-28 cells at 10^-5 M incubated for 48 hrs by sulforhodamine B assay; details: SK-MEL-28, 48 h, read-out: GI
SK-MEL-5 = assay: Growth inhibition of human SK-MEL-5 cells at 10^-5 M incubated for 48 hrs by sulforhodamine B assay; details: SK-MEL-5, 48 h, read-out: GI
UACC-62 = assay: Growth inhibition of human UACC62 cells at 10^-5 M incubated for 48 hrs by sulforhodamine B assay; details: UACC-62, 48 h, read-out: GI
IGROV-1 = assay: Growth inhibition of human IGROV1 cells at 10^-5 M incubated for 48 hrs by sulforhodamine B assay; details: IGROV-1, 48 h, read-out: GI
OVCAR-8 = assay: Growth inhibition of human OVCAR8 cells at 10^-5 M incubated for 48 hrs by sulforhodamine B assay; details: OVCAR-8, 48 h, read-out: GI
SK-OV-3 = assay: Growth inhibition of human SKOV3 cells at 10^-5 M incubated for 48 hrs by sulforhodamine B assay; details: SK-OV-3, 48 h, read-out: GI
786-0 = assay: Growth inhibition of human 786-0 cells at 10^-5 M incubated for 48 hrs by sulforhodamine B assay; details: 786-0, 48 h, read-out: GI
A498 = assay: Growth inhibition of human A498 cells at 10^-5 M incubated for 48 hrs by sulforhodamine B assay; details: A498, 48 h, read-out: GI
ACHN = assay: Growth inhibition of human ACHN cells at 10^-5 M incubated for 48 hrs by sulforhodamine B assay; details: read-out: GI
CAKI-1 = assay: Growth inhibition of human Caki1 cells at 10^-5 M incubated for 48 hrs by sulforhodamine B assay; details: CAKI-1, 48 h, read-out: GI
RXF 393 = assay: Growth inhibition of human RXF393 cells at 10^-5 M incubated for 48 hrs by sulforhodamine B assay; details: RXF 393, 48 h, read-out: GI
TK-10 = assay: Growth inhibition of human TK10 cells at 10^-5 M incubated for 48 hrs by sulforhodamine B assay; details: TK-10, 48 h, read-out: GI
UO-31 = assay: Growth inhibition of human UO31 cells at 10^-5 M incubated for 48 hrs by sulforhodamine B assay; details: UO-31, 48 h, read-out: GI
PC-3 = assay: Growth inhibition of human PC3 cells at 10^-5 M incubated for 48 hrs by sulforhodamine B assay; details: PC-3, 48 h, read-out: GI
MDA-MB-231 = assay: Growth inhibition of human MDA-MB-231 cells at 10^-5 M incubated for 48 hrs by sulforhodamine B assay; details: MDA-MB-231, 48 h, read-out: GI
Hs-578T = assay: Growth inhibition of human Hs 578T cells at 10^-5 M incubated for 48 hrs by sulforhodamine B assay; details: read-out: GI
BT-549 = assay: Growth inhibition of human BT549 cells at 10^-5 M incubated for 48 hrs by sulforhodamine B assay; details: BT-549, 48 h, read-out: GI
T47D = assay: Growth inhibition of human T47D cells at 10^-5 M incubated for 48 hrs by sulforhodamine B assay; details: read-out: GI
MDA-MB-468 = assay: Growth inhibition of human MDA-MB-468 cells at 10^-5 M incubated for 48 hrs by sulforhodamine B assay; details: MDA-MB-468, 48 h, read-out: GI

| Structure (SMILES) | inhibition of growth at 10 µM (HL-60(TB)) | inhibition of growth at 10 µM (K562) | inhibition of growth at 10 µM (MOLT-4) | inhibition of growth at 10 µM (SR) | inhibition of growth at 10 µM (HOP-62) | inhibition of growth at 10 µM (NCI-H226) | inhibition of growth at 10 µM (NCI-H23) | inhibition of growth at 10 µM (NCI-H322M) | inhibition of growth at 10 µM (NCI-H460) | inhibition of growth at 10 µM (COLO 205) | inhibition of growth at 10 µM (HCT-15) | inhibition of growth at 10 µM (SW-620) | inhibition of growth at 10 µM (SF-268) | inhibition of growth at 10 µM (SF-295) | inhibition of growth at 10 µM (SF-539) | inhibition of growth at 10 µM (SNB-19) | inhibition of growth at 10 µM (Malme-3M) | inhibition of growth at 10 µM (M14) | inhibition of growth at 10 µM (SK-MEL-2) | inhibition of growth at 10 µM (SK-MEL-28) | further results |
| --- | --- | --- | --- | --- | --- | --- | --- | --- | --- | --- | --- | --- | --- | --- | --- | --- | --- | --- | --- | --- | --- |
| O=C1Nc2c(sc3ccc(Cl)cc23)C(c2ccc3ccccc3c2)N1 (centres undefined) | 5.39% | 14% | 12.9% | 20.9% | 13.9% | 7.25% | 11.7% | 9.44% | 2.77% | -6.54% | 1.48% | 1.75% | 6.94% | 2.29% | 3.67% | 2.49% | 17.3% | 6.72% | 0.12% | 3.5% | inhibition of growth at 10 µM (SK-MEL-5): 1.82%; inhibition of growth at 10 µM (UACC-62): -1.09%; inhibition of growth at 10 µM (IGROV-1): 17.4%; inhibition of growth at 10 µM (OVCAR-8): 6.44%; inhibition of growth at 10 µM (SK-OV-3): 16.8%; inhibition of growth at 10 µM (786-0): 6.06%; inhibition of growth at 10 µM (A498): 15.2%; inhibition of growth at 10 µM (ACHN): 10.1%; inhibition of growth at 10 µM (CAKI-1): 23.3%; inhibition of growth at 10 µM (RXF 393): -10.1%; inhibition of growth at 10 µM (TK-10): 15.4%; inhibition of growth at 10 µM (UO-31): 37.4%; inhibition of growth at 10 µM (PC-3): 7.25%; inhibition of growth at 10 µM (MDA-MB-231): 14.8%; inhibition of growth at 10 µM (Hs-578T): 3.46%; inhibition of growth at 10 µM (BT-549): -1.2%; inhibition of growth at 10 µM (T47D): 24.2%; inhibition of growth at 10 µM (MDA-MB-468): -13.7% |
| O=C1/C(=C\c2ccc3ccccc3c2)Sc2ccc(Cl)cc21 | -7.44% | 2.65% | 1.25% | 18.6% | 5.71% | 17.9% | 10.4% | 10.3% | 0.3% | -10.7% | -4.32% | 3.24% | 3.36% | -8.09% | -8.09% | -8.84% | 8.78% | 3.18% | -0.66% | -17.4% | inhibition of growth at 10 µM (SK-MEL-5): 5.71%; inhibition of growth at 10 µM (UACC-62): 21.7%; inhibition of growth at 10 µM (IGROV-1): 15.7%; inhibition of growth at 10 µM (OVCAR-8): -4.13%; inhibition of growth at 10 µM (SK-OV-3): -3.03%; inhibition of growth at 10 µM (786-0): 0.49%; inhibition of growth at 10 µM (A498): 0.99%; inhibition of growth at 10 µM (ACHN): 8.79%; inhibition of growth at 10 µM (CAKI-1): 27.9%; inhibition of growth at 10 µM (RXF 393): -2.24%; inhibition of growth at 10 µM (TK-10): -5.61%; inhibition of growth at 10 µM (UO-31): -5.61%; inhibition of growth at 10 µM (PC-3): 11.6%; inhibition of growth at 10 µM (MDA-MB-231): 12.4%; inhibition of growth at 10 µM (Hs-578T): -2.83%; inhibition of growth at 10 µM (BT-549): -9.47%; inhibition of growth at 10 µM (T47D): 29.5%; inhibition of growth at 10 µM (MDA-MB-468): -6.42% |
| N=C1Nc2c(sc3ccc(Cl)cc23)C(c2ccccc2O)N1 (centres undefined) | -8.53% | -2.22% | 0.44% | 10.2% | 9.32% | 12.7% | 10.5% | 4.18% | 0.95% | -6.79% | -5.8% | 1.38% | 6.19% | -6.6% | -6.63% | -3.35% | 4.61% | 1.39% | 0.27% | -16.7% | inhibition of growth at 10 µM (SK-MEL-5): 2.66%; inhibition of growth at 10 µM (UACC-62): 8.57%; inhibition of growth at 10 µM (IGROV-1): 17.4%; inhibition of growth at 10 µM (OVCAR-8): -6.18%; inhibition of growth at 10 µM (SK-OV-3): 9.9%; inhibition of growth at 10 µM (786-0): -0.24%; inhibition of growth at 10 µM (A498): 6.2%; inhibition of growth at 10 µM (ACHN): 18.8%; inhibition of growth at 10 µM (CAKI-1): -15.6%; inhibition of growth at 10 µM (RXF 393): 3.66%; inhibition of growth at 10 µM (TK-10): 38%; inhibition of growth at 10 µM (UO-31): 11.9%; inhibition of growth at 10 µM (PC-3): -12.5%; inhibition of growth at 10 µM (MDA-MB-231): -5.69%; inhibition of growth at 10 µM (Hs-578T): -10.5%; inhibition of growth at 10 µM (BT-549): 17.5%; inhibition of growth at 10 µM (T47D): -13.9%; inhibition of growth at 10 µM (MDA-MB-468): 2.58% |
